`C[C@H]1CC[C@H]2C(C)(C)[C@@H](O)CC[C@]23Oc2c(c(O)cc4c2CN(C)C4=O)C[C@]13C` showed a melting point of 205 to 210 °C.
Work on `O=C(O)c1ccc(OCC2CCCC2Nc2ccc(Cl)cc2)cc1` (centres undefined) yielded a melting point of 153 to 156 °C.
`Cc1c(C(=O)O)cnn1CCO` showed a melting point of 203 °C.
For `CN(O)CCc1ccc2c(c1)C(=O)c1ccccc1CO2`, the melting point was 101 to 102 °C.
For `COC(=O)c1ccc(NN)cc1S(=O)(=O)NC(C)(C)C`, the melting point was 133 to 136 °C.
Work on `CCC1(CC)CC(O)CC(C)(C)N1OC(C)c1ccccc1` (centres undefined) yielded a melting point of 84 to 86 °C.
`Cc1c(-c2ccccc2)nn2c1-c1ccccc1CC2` showed a melting point of 122 to 124 °C.
`CC(=O)NC[C@H]1CN(c2ccc(C3CCN(C(=O)CO)CC3)cc2)C(=O)O1` gave a melting point of 155 to 157 °C.
`Cc1nc(Cl)c(-c2ccc(Cl)cc2)c(NS(=O)(=O)c2ccc(Cl)cc2)n1` showed a melting point of 196 to 197 °C.
`CC(=O)Nc1nc2n(n1)Cc1ccccc1-2` showed a melting point of 258 to 259 °C.
Compound `Cc1nc2cccc(OCC=CCN3CCN(C4c5ccccc5CCc5ccccc54)CC3)c2s1` has a melting point of 114 °C.
`O=c1cnc2c([nH]1)-c1ccccc1C2=NO` gave a melting point greater than 300 °C.
`CCOC(=O)c1c2ccc(Cl)cc2c(-c2ccccc2)n1CCN(CC)CC` showed a melting point of 75 to 77 °C.
`COC(=O)CCC(C)(C)c1ccc(OC)c(NC(=O)C[C@H]2O[C@H](c3cccc(OC)c3OC)c3cc(Cl)ccc3N(CC(C)(C)COC(C)=O)C2=O)c1` gave a melting point of 157 to 158 °C.
`Cc1c(C)c2c(c(C)c1NC=O)OC(C)(C)C2=O` gave a melting point of 191 to 192 °C.
In the case of `Cc1c(-c2ccc(OS(=O)(=O)NN(C)C)cc2)[nH]c2nccnc12`, the melting point is reported as 188 °C.
Compound `O=C(O)/C=C/c1ccc(OCCOC2CC2)cc1Oc1ncc(C(F)(F)F)cc1Cl` has a melting point of 147 to 150 °C.
In the case of `Fc1cccc(Cl)c1-c1nnc2ccc(C(F)(F)F)cn12`, the melting point is reported as 170 to 171 °C.
In the case of `CCCCCCCCCCCCCCCCCNC(=O)OCCOCCOC(=O)N(Cc1ccccn1)C(=O)OCC`, the melting point is reported as 57 to 59 °C.
Compound `CC(C)C(Br)C(=O)Nc1ccccc1O` (centres undefined) has a melting point of 110 to 111 °C.
In the case of `O=C(Nc1cccnc1)c1ccc([N+](=O)[O-])cc1`, the melting point is reported as 191 to 194 °C.
Work on `CCN(CC)C(=O)COc1nc(C(F)(F)F)ns1` yielded a melting point of 60 °C.
With `Cc1cc(-c2nc3cccnn3c2-c2ccnc(NC(=O)C3CC3)c2)ccc1F` the melting point was 217 to 218 °C.
In the case of `COc1cccc(C(=O)N2CCc3cc(OCc4ccccc4)c(OC)cc3C2=O)c1`, the melting point is reported as 141 to 143 °C.
With `O=C(O)c1ccc(-n2cc3ccccc3n2)cc1` the melting point was 286 to 288 °C.
In the case of `FC(F)(F)c1cc(Cl)c(-c2nc(Br)c(Br)[nH]2)c(Cl)c1`, the melting point is reported as 328 to 329 °C.
With `CCOC(=O)C1=C(C(F)(F)F)Nc2n[nH]cc2C1c1ccc(C(=O)OCC)cc1` (centres undefined) the melting point was 157 to 160 °C.
For `O=c1nc(-c2ccccn2)sc2ccc(OCCCc3ccccc3)cc12`, the melting point was 170 °C.
Compound `COC(=O)C(=C(C)O)N1C(=O)C(N2C(=O)c3ccccc3C2=O)C1SC(C)=O` (centres undefined) has a melting point of 178 to 183 °C.
`CC(=O)OC12Oc3cc(C(C)C)ccc3C1(OC(C)=O)C(=O)c1c(N)cccc12` (centres undefined) gave a melting point of 201 to 203 °C.
`O=C1CCC(c2ccc(CCCN3CCN(c4ccccc4)CC3)cc2)N1` (centres undefined) gave a melting point of 130 °C.
Work on `COc1cc2nc(-c3cc(C)c(OCC(N)=O)c(C)c3)[nH]c(=O)c2cc1OC` yielded a melting point of 354 to 356 °C.
For `C#CCN1C(=O)COc2cc(F)c(N(C(C)=O)C(=O)C3=C(C(=O)OC)CCCC3)cc21`, the melting point was 153 to 154 °C.
With `CC(C)(C)c1ccc(C(=O)C(Cl)Cl)cc1` the melting point was 47 to 49 °C.
Work on `CCOC(=NC(=O)Nc1ccc(Oc2ncc(C(F)(F)F)cc2Cl)cc1)c1c(F)cccc1F` yielded a melting point of 127 to 130 °C.
For `COC(=O)C1C=CCN2C(=O)C(C)(CCOS(C)(=O)=O)C(=O)N12` (centres undefined), the melting point was 104 to 105 °C.
`CCOC[C@@H]1CNCC[C@@H]1c1ccc(Cl)c(Cl)c1` gave a melting point of 68 to 70 °C.
For `CC(=O)N1CCN=C1Nc1cccc2c1CCCC2`, the melting point was 142 to 144 °C.
Compound `N#CCNS(=O)(=O)c1ccc([N+](=O)[O-])cc1` has a melting point of 115 to 120 °C.
`CCN1C(=O)CCCc2cc(Nc3ncc(Cl)c(N[C@@H]4CCCC[C@H]4NS(C)(=O)=O)n3)c(OC)cc21` gave a melting point of 120 to 128 °C.
`CCCC(CCC)C(=O)NC(=O)C(N)c1ccccc1` (centres undefined) gave a melting point of 190 to 191 °C.
Compound `C=CCN1C(=O)C(C)N(c2ccc(Cc3ccccc3)cc2)C1=S` (centres undefined) has a melting point of 62 to 64 °C.
For `Cc1oc(C)c(C(=O)O)c1C(=O)O`, the melting point was 232 to 235 °C.
In the case of `O=[N+]([O-])c1ccc(S(=O)(=O)n2c3cc(O)c(O)cc3c3ccc(O)c(O)c32)cc1`, the melting point is reported as 233 to 234 °C.
For `CCN(CC)Cc1cc(C(N)=O)cc(Br)c1N`, the melting point was 140 to 142 °C.
In the case of `CCc1noc(-c2cn(-c3cccc(Oc4ccccc4)c3)cn2)n1`, the melting point is reported as 108 to 109 °C.
Compound `O=C(O)c1cc(OCC(F)(F)F)c(Cl)cc1[N+](=O)[O-]` has a melting point of 153 to 155 °C.
For `C#CC(O)(c1ccccc1)c1ccncc1` (centres undefined), the melting point was 165 to 166 °C.
`CCN(CC)C(=O)C=Cc1cc(OC)c(OC)c(OC)c1` showed a melting point of 132 °C.
Work on `CCc1noc(-c2ccc(O)cc2)n1` yielded a melting point of 138 °C.
For `C1=CC2=C(CCCC2)n2c3c(c4cnccc42)CCC=C13`, the melting point was 134 to 137 °C.
`CCN(CC)C(=O)c1ccccc1-c1ccc(F)cc1` showed a melting point of 57 to 59 °C.
Compound `Cc1ccc(Cl)cc1NC(=O)c1cc([N+](=O)[O-])ccc1NC(=O)CF` has a melting point of 210 to 212 °C.
With `COc1c(Cl)ccc(-c2nc(C(=O)NOC3CCCCO3)c(Cl)c(N)c2F)c1F` (centres undefined) the melting point was 177 to 180 °C.
`O=C(CCl)c1ccc(OCCOc2ccc(C(=O)CCl)cc2)cc1` gave a melting point of 165 °C.
For `COC(=O)C1=C(C)NC(C)=C(C(=O)OC)C1c1ccccc1NC(C)=O`, the melting point was 284 to 285 °C.
`CC#CCNC(=C[N+](=O)[O-])NCCSCc1[nH]cnc1C` showed a melting point of 148 to 151 °C.
Work on `CSCc1cc([N+](=O)[O-])ccc1N` yielded a melting point of 72 to 77 °C.
`COc1ccc(-c2cc(S(C)(=O)=O)nnc2-c2ccc(OC)cc2)cc1` showed a melting point of 137 to 140 °C.
Compound `Cc1ccc2oc(-c3ccccc3-c3nnn[nH]3)c(Br)c2c1` has a melting point of 167 to 168 °C.
Work on `CN(C)CCCNC(=O)c1cccc(-c2nnc(CSCCOc3ccccc3)o2)c1` yielded a melting point of 88 to 90 °C.
`CCOC(=O)/C=C(/c1ccc(CC)cc1)c1cc(Cl)cc(Cl)c1` gave a melting point of 73 to 75 °C.
`CCOC(=O)C1CC2CC(CP(=O)(O)O)CCC2CN1` (centres undefined) showed a melting point of 184 to 185 °C.
Compound `COc1cc2ccc(C(=O)N3CCN(C(=O)c4cc(OC)c(OC)c(OC)c4)CC3)cc2cc1OC` has a melting point of 224 to 226 °C.
In the case of `CCOC(=O)c1ccccc1Nc1ccccc1O`, the melting point is reported as 105 to 106 °C.
Compound `COc1cc(C2(C)C(=O)Nc3ccccc3C2=O)ccc1O` (centres undefined) has a melting point of 168 to 169 °C.
Work on `CC(C)(C)N1CC(=O)Nc2ccc(C#C[Si](C)(C)C)cc2C1=O` yielded a melting point of 243 to 244 °C.
For `COCC(C)(C)c1cc(N)no1`, the melting point was 96 to 99 °C.
In the case of `O=C(C(=O)c1cccc(I)c1)c1cccc(I)c1`, the melting point is reported as 127 °C.
`COC(=O)COc1ccc(C(C)=O)c2ccccc12` showed a melting point of 123 to 125 °C.
Work on `CCCNC(=O)NCCCCCN1CCC(CNC(=O)c2cc(Cl)c(N)cc2OC)CC1` yielded a melting point of 144 to 147 °C.
In the case of `N#CCc1ccc(-c2nc3ccccc3o2)cc1N`, the melting point is reported as 198 to 199 °C.
Work on `Cc1nc(C(F)F)ccc1C(=O)C1=C(NS(=O)(=O)c2ccccc2)C(C)(C)C(=O)C(C)(C)C1=O` yielded a melting point of 130 °C.
`O=C1NC(=O)C2(C=CC=C3OCC=C32)N1` (centres undefined) gave a melting point of 245 to 248 °C.
In the case of `CCCN1c2cscc2CN(C)c2ccccc21`, the melting point is reported as 90 to 92 °C.
Work on `Cc1ccc(-c2c(Cl)nc(-c3ccccc3)nc2NS(=O)(=O)c2ccc(C(C)(C)C)cc2)cc1` yielded a melting point of 249 to 250 °C.
`CC(C)Oc1ccc(C(=O)N/C(=C\c2ccc(OC(F)(F)F)cc2)C(=O)NCCO)cc1` showed a melting point of 142 to 146 °C.
In the case of `O=C(CO)OC(=O)CCS`, the melting point is reported as 143 to 144 °C.
`COC(=O)c1ncc(C(=O)O)c2ccccc12` gave a melting point of 189 °C.
Compound `CCCN1C(=O)N2C[C@@H](Cc3ccccc3)N=C2c2c1nc(C=O)n2Cc1ccccc1` has a melting point of 184 to 185 °C.
With `O=C(Nc1cccc(-c2ccnc3c(C(=O)c4cccs4)cnn23)c1)c1c(Cl)cccc1Cl` the melting point was 245 to 246 °C.
`CCOC(=O)CCc1c(OCCCCCBr)ccc2ccc(OCC(=O)OCC)cc12` showed a melting point of 29.5 to 32 °C.
With `CCCCc1ccc(C(=O)Oc2ccc(C=O)cc2)cc1` the melting point was 49.7 °C.
With `CN1CCC(NC(c2cccc(C#CCCCCN)c2)c2nc3ccccc3[nH]2)CC1` (centres undefined) the melting point was 79 °C.
Work on `O=c1cc(Nc2ccccc2)[nH]n1-c1ccc(S(=O)(=O)O)cc1` yielded a melting point of 290 to 291 °C.
`O=C(NN1CCN(C(=O)C=Cc2ccccc2)CC1)c1ccc(F)cc1` showed a melting point of 235 to 240 °C.
For `Cc1onc(-c2ccccc2)c1-c1ccc(S(=O)(=O)NC(=O)CC(C)(C)SN=O)cc1`, the melting point was 138 to 140 °C.
Compound `CC(n1cncn1)C(O)(Cn1cncn1)c1ccc(Cl)cn1` (centres undefined) has a melting point of 156 to 157 °C.
`CNC(=O)N(C)c1nnc(SCC(=O)OC(C)(C)C)s1` showed a melting point of 174 °C.
For `COc1cn(-c2ccc(N3CCCC(F)(F)C3)cc2F)nc(-c2ccnn2-c2ccccc2)c1=O`, the melting point was 182 to 187 °C.
With `Cc1ccccc1-c1nc(-c2ccccc2)c[nH]1` the melting point was 145 to 146 °C.
With `CCOC(=O)c1ccc(/C=C(\C)c2cc3c(cc2OC)C(C)(C)CCC3(C)C)cc1` the melting point was 97 to 98 °C.
In the case of `COc1cc(CCC=O)ccc1OCc1nc(-c2ccccc2)oc1C`, the melting point is reported as 80 to 81 °C.
For `O=C1c2ccccc2OCN1CCCCCO[N+](=O)[O-]`, the melting point was 39 to 41 °C.
`CC(C)(C)OC(=O)c1nc(-c2ccccc2)[nH]c1-c1cnccn1` showed a melting point of 196 to 197 °C.
`NC(=S)c1c[nH]cc1-c1cccc(Cl)c1Cl` showed a melting point of 128 to 132 °C.
With `CC(C)(C)NC(=O)Nc1nc2nc(N)ncc2cc1-c1cccnc1` the melting point was greater than 300 °C.
For `O=C1NCCN1C1CCN(CCC2COc3ccccc3O2)CC1` (centres undefined), the melting point was 155 to 157 °C.
Compound `CC(=O)CC(=O)NC12CC3CC(CC(C3)C1)C2` has a melting point of 80 °C.
In the case of `Cc1cccc(C(O)CSC(=S)Nc2ccc(Cl)cn2)c1` (centres undefined), the melting point is reported as 122 °C.
`O=C(Nc1ccc(Oc2ccnc(N3CCCC3)n2)c2ccccc12)c1ccccc1N1CCCC(F)C1` (centres undefined) gave a melting point of 111 to 113 °C.
For `CCCCCCCCCCCCCCOc1ccc(CO)cc1`, the melting point was 72 to 74 °C.
`Cc1cc(Br)c(S(N)(=O)=O)cc1C(=O)O` showed a melting point of 237 °C.
Compound `CCCCCCCCCCCCCCCCCC(=S)SCC(C)C(=O)N1CCCC1C(=O)O` (centres undefined) has a melting point of 50 to 51 °C.

Source: a melting point compilation (Tetko et al.; mined from patent text by program, amines drawn as free bases though some values may be those of a salt)
